Like-named read-outs stand apart in the source and are kept apart here.

This passage reports IC50 results from US10787444B2, “Compounds for the modulation of myc activity” (Syros Pharmaceuticals, Inc., priority 2015, dated 2020).

The target in experiment [1] is T1, c-Myc/Max/Ebox DNA (Homo sapiens, UniProt P01106).
T1 construct: his6 (cleaved yes)
The experiment can be described thus: c-Myc/Max/Ebox DNA AlphaScreen Assay. It is filed as binding. The note with it: calculated IC50 class. Summed up: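 Compounds were preincubated with free c-Myc (20 nM), biotinylated single-Ebox DNA (10 nM) and Ni acceptor beads before his6-Max (5 nM) and streptavidin donor beads were added. Buffer was 50 mM HEPES pH 8.0, 150 mM NaCl, BSA, Tween20, glycogen and DTT, with DMSO ≤2%. After 2 h incubation, AlphaScreen signal was read at 680 nm excitation and 520–620 nm emission.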

In experiment [2] the test system is human small lung cancer cell line H2171. The experiment can be described thus: Cell Viability Assay (ATPlite). It is filed as cell-based. As to conditions: read-out: H2171 Activity. An outline of the steps:
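Viability readout was ATPlite luminescence, taken after 3 days' incubation at 37° C. Human SCLC H2171 cells (20,000 cells/mL) received compound right after plating, as a 10-point dose response.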
(Cellular ATP, detected with luciferase, serves as a proxy for viable cell number.)

Setting [3] is: Homo sapiens, NCI-H2171, 72 h, Table 2, compounds of FIG. 1, H2171 cells, three days, ATPlite, calculated IC50 class.

T1 sequence (P01106 whole entry): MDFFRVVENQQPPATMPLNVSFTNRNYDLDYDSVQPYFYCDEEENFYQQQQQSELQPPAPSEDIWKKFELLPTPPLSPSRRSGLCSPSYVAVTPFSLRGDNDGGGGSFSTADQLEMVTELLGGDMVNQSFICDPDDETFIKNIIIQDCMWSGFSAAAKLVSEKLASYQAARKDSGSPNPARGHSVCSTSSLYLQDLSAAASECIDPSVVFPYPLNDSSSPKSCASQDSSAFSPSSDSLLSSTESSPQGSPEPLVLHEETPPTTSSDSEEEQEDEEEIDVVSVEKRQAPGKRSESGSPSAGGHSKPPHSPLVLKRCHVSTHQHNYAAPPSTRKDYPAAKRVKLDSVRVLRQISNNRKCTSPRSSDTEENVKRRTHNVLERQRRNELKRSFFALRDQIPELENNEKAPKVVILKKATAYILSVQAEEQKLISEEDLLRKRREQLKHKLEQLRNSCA

Consider `CCC(C)NCCC(=O)Nc1sc2c(c1-c1nc3ccccc3s1)CCNC2` (stereo not drawn) [Compound 124, N-(3-(benzo[d]thiazol-2-yl)-4,5,6,7-tetrahydrothieno[2,3-c]pyridin-2-yl)-3-(sec-butylamino)propanamide], for which the IC50 in experiment [1] (Table 2, compounds of FIG. 1) was less than 300 nM; in experiment [2] (setting [3]), less than 300 nM.
Consider `COCCNCCC(=O)Nc1sc2c(c1-c1nc3cc(-c4ccncc4)ccc3s1)CC(C)NC2C` (single isomer, unassigned) [Compound 521, N-(5,7-dimethyl-3-(5-(pyridin-4-yl)benzo[d]thiazol-2-yl)-4,5,6,7-tetrahydrothieno[2,3-c]pyridin-2-yl)-3-((2-methoxyethyl)amino)propanamide], for which the IC50 in experiment [1] (Table 2, compounds of FIG. 1) was less than 300 nM; in experiment [2] (setting [3]) it was less than 300 nM.
As to `CC(C)NCCC(=O)Nc1sc2c(c1-c1nc3cc(C(=O)N4CCN(C)CC4)ccc3s1)CCNC2` [Compound 324, 3-(Isopropylamino)-N-(3-(5-(4-methylpiperazine-1-carbonyl)benzo[d]thiazol-2-yl)-4,5,6,7-tetrahydrothieno[2,3-c]pyridin-2-yl)propanamide], the IC50 in experiment [1] (Table 2, compounds of FIG. 1) is 300 to 1000 nM; in experiment [2] (setting [3]), 1000 to 10000 nM.
Turning to `COCCNCCC(=O)Nc1sc2c(c1-c1nc3ccc(F)cc3s1)CCNC2` [Compound 318, N-(3-(6-Fluorobenzo[d]thiazol-2-yl)-4,5,6,7-tetrahydrothieno[2,3-c]pyridin-2-yl)-3-((2-methoxyethyl)amino)propanamide], the IC50 in experiment [1] (Table 2, compounds of FIG. 1) was 300 to 1000 nM; in experiment [2] (setting [3]), less than 300 nM.
The corresponding values for `CCC(C)NCCC(=O)Nc1sc2c(c1-c1nc3cc(C(F)(F)F)ccc3s1)CCN(C(C)C)C2` (stereo not drawn) [Compound 142, 3-(sec-butylamino)-N-(6-isopropyl-3-(5-(trifluromethyl)benzo[d]thiazol-2-yl)-4,5,6,7-tetrahydrothieno[2,3-c]pyridin-2-yl)propanamide] are less than 300 nM and less than 300 nM.
For `CC(C)NCCC(=O)Nc1sc2c(c1-c1nc3c(-c4cnn(C)c4)cccc3s1)CCNC2` [compound 515], the IC50 is less than 300 nM in experiment [1] (Table 2, compounds of FIG. 1) and less than 300 nM in experiment [2] (setting [3]).
As to `COCCNCCC(=O)Nc1sc2c(c1-c1nc3cc(-c4ccnc(N)c4)ccc3s1)CCNC2` [compound 433], the IC50 in experiment [1] (Table 2, compounds of FIG. 1) was less than 300 nM; in experiment [2] (setting [3]) it was less than 300 nM.
Consider `CC(=O)Nc1sc2c(c1-c1nc3ccccc3s1)CCN(C(C)C)C2` [Compound 200, N-(3-(benzo[d]thiazol-2-yl)-6-isopropyl-4,5,6,7-tetrahydrothieno[2,3-c]pyridin-2-yl)acetamide], for which the IC50 in experiment [1] (Table 3, compounds of FIG. 2) was 300 to 1000 nM; in experiment [2] (Homo sapiens, NCI-H2171, 72 h) it was 1000 to 10000 nM.
With `CC(=O)Nc1sc2c(c1-c1nc3ccccc3s1)CCC(N(C)C)C2` (stereo not drawn) [Compound 223, N-(3-(benzo[d]thiazol-2-yl)-6-(dimethylamino)-4,5,6,7-tetrahydrobenzo[b]thiophen-2-yl)acetamide], the IC50 in experiment [1] (Table 3, compounds of FIG. 2) is 1000 to 10000 nM; in experiment [2] (Homo sapiens, NCI-H2171, 72 h, Table 3, compounds of FIG. 2, H2171 cells, three days, ATPlite, calculated IC50 class), more than 10000 nM.
For `CC(C)NCCC(=O)Nc1sc2c(c1-c1nc3cc(C(=O)N(C)C)ccc3s1)CCNC2` [Compound 322, 2-(2-(3-(Isopropylamino)propanamido)-4,5,6,7-tetrahydrothieno[2,3-c]pyridin-3-yl)-N,N-dimethylbenzo[d]thiazole-5-carboxamide], the IC50 in experiment [1] (Table 2, compounds of FIG. 1) was 300 to 1000 nM; in experiment [2] (setting [3]) it was less than 300 nM.
Turning to `COCCNCCC(=O)Nc1sc2c(c1-c1nc3ccccc3s1)CCNC2` [Compound 134, N-(3-(benzo[d]thiazol-2-yl)-4,5,6,7-tetrahydrothieno[2,3-c]pyridin-2-yl)-3-((2-methoxyethyl)amino)propanamide], the IC50 was less than 300 nM in experiment [1] (Table 2, compounds of FIG. 1) and less than 300 nM in experiment [2] (setting [3]).
On to `COCCNCCC(=O)Nc1sc2c(c1-c1nc3cc(C(F)(F)F)ccc3s1)CC(C)NC2` (single isomer, unassigned) [Compound 551, 3-((2-Methoxyethyl)amino)-N-(5-methyl-3-(5-(trifluoromethyl)benzo[d]thiazol-2-yl)-4,5,6,7-tetrahydrothieno[2,3-c]pyridin-2-yl)propanamide], for which the IC50 in experiment [1] (Table 2, compounds of FIG. 1) was less than 300 nM; in experiment [2] (Table 2, compounds of FIG. 1, H2171 cells, three days, ATPlite, calculated IC50 class), less than 300 nM.
